# US20240383911A1, “AZAINDAZOLE MACROCYCLE COMPOUNDS AND USES THEREOF” (BROADENBIO CO., LTD, priority 2021, published 2024)
# Experiments:
# KDR = KDR (Homo sapiens, UniProt P35968); assay: KDR kinase activity inhibition test (HTRF); type: biochemical; conditions: read-out: IC50, inhibitory effects on KDR kinase activity
# Description: Tested compounds: compounds prepared in the Examples of this invention.
# Prepare compound stock solution: dissolve the test compound in 100% DMSO to make a 10 mM stock solution. Dilute the stock solution of the test compound by 5 times with 100% DMSO, make a 4-fold equal dilution in a 96-well dilution plate, add 1 μL of the compound to 39 μL of kinase reaction buffer (1×kinase buffer, 5 mM MgCl2, 1 mM DTT), and shake on a microplate shaker for 20 minutes. 4×Positive control (4 μL of positive compound solution of the starting concentration, add 196 μL of kinase buffer) and 4×negative control (4 μL of 100% DMSO, add 196 μL of kinase buffer).
# (1) Use 1×kinase reaction buffer to prepare 2.5×KDR kinase solution (250 μM), transfer 2 μL of the kinase solution to the 384 reaction plate, and add 1 μL of the test compound solution of gradient concentration to the 384 reaction plate (Greiner, Cat #784075), centrifuge for 1 minute (1000 rpm), and incubate at 25° C. for 10 minutes.
# (2) Use 1×kinase reaction buffer to prepare 2.5×TK-substrate-biotin (2.5 μM) and 2.5×ATP (2.5 μM), mix well, and add 2 μL of the TK-substrate-biotin/ATP solution to the 384 reaction plate, centrifuge for 30 seconds (1000 rpm), and incubate at 25° C. for 40 minutes.
# (3) Use HTRF detection buffer to prepare 2×Sa-XL 665 (125 nM) and 1×TK-antibody-Cryptate. Add 5 μL of a mixture of Sa-XL 665 and TK-antibody-Cryptate solutions to each well, centrifuge for 30 seconds (1000 rpm), and react at room temperature for 1 hour.
# (4) The fluorescence signal is read using a Biotek multi-function plate reader, and the IC50 (half inhibitory concentration) of the compound is obtained using a four-coefficient nonlinear fitting formula.
# MV-4-11 cells = assay: Detection of MV-4-11 cell activity (CellTiter-Glo); type: cell-based; conditions: Homo sapiens, MV4-11, 120 h, 5 days, CTG, read-out: IC50, inhibitory effects on MV-4-11 cell activity
# Description: The CellTiter-Glo (CTG) luminescence method was used to detect the effect of compounds on the activity of MV-4-11 cells.
# Tested compounds: compound prepared in the Examples of the present invention.
# Add 100 μL containing 20,000 MV-4-11 (human myeloid monocytic leukemia cells, from the Cell Bank of the Chinese Academy of Sciences, Cat. No. SCSP-5031) cell suspension to 96-well flat-bottom clear-bottomed cell plates (Corning, Cat #3603), and then add 100 μL of cell culture medium containing a series of concentrations of the compound to be tested, with a total volume of 200 μL per well. The final gradient concentrations of the compounds were 500 nM, 125 nM, 31.25 nM, 7.813 nM, 1.953 nM, 0.488 nM, 0.122 nM, 0.031 nM, and 0.008 nM, and the final DMSO content was 0.5%. Set cells with the cell culture medium containing 0.5% DMSO but without compounds as the 100% control; set the culture medium wells without cells as 0% background control. Incubate the cell plate in a humidified incubator at 37° C. and 5% CO2 for 5 days. After 5 days, take out the cell plate, centrifuge (1000 rpm) for 5 minutes, remove and discard 100 μL supernatant, add 100 μL CTG reagent (Promega, Cat #G7572) to each well, shake at room temperature for 10 minutes to promote cell lysis, and incubate at room temperature for 30 minutes to stabilize the luminescence signal. Use a microplate reader (Molecular Device, i3X) to read the Luminescent fluorescence value, use GraphPad Prism 5.0 software to analyze the original data, use nonlinear S-curve regression to fit the data to obtain the dose-effect curve (cell survival rate %), and calculate the IC50 value.
# Sequence of KDR (P35968 20-1356): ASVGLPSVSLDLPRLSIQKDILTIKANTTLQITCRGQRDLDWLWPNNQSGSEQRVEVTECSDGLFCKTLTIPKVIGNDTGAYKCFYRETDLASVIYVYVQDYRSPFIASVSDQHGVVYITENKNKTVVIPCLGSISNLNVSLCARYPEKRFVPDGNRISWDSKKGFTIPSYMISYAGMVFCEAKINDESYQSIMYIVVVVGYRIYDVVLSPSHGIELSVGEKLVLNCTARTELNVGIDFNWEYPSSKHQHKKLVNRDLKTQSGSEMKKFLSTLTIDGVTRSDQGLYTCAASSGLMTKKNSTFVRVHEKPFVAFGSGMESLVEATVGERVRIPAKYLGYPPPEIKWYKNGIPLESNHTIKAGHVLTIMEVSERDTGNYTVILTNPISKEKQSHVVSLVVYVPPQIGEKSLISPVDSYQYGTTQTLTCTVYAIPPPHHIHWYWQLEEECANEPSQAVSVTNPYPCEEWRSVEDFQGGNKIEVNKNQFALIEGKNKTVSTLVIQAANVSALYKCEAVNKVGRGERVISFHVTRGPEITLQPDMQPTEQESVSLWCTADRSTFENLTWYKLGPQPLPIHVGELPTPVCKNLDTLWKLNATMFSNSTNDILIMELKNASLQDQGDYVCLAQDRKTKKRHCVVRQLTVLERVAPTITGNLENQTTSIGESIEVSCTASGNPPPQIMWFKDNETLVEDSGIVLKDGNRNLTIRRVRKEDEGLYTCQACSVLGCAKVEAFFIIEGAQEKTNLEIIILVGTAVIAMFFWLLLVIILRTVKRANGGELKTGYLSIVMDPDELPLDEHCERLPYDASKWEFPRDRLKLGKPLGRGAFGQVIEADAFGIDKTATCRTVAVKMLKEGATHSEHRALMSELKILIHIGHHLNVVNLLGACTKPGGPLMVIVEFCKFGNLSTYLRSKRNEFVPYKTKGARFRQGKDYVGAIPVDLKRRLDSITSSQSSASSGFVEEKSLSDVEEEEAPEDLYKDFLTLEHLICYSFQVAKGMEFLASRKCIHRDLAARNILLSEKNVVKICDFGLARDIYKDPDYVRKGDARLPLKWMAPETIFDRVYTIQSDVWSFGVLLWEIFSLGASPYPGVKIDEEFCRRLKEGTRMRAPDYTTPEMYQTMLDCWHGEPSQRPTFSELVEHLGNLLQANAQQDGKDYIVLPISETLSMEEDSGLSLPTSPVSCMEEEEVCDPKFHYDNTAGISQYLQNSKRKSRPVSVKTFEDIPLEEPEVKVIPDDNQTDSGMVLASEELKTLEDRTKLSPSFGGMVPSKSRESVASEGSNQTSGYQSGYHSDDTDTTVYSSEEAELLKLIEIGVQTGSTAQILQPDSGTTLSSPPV
IC50 (KDR),IC50 (MV-4-11 cells),Compound
5 to 50 nM,32 nM,"CN1CCN(c2ncc3cc2OCCCOc2cccc(F)c2-c2cc4c-3n[nH]c4cn2)CC1 [Compound 3, 16-fluoro-5-(4-methylpiperazin-1-yl)-7,11-dioxa-4,19,22,23-tetraazapentacyclo[16.5.2.1^2,6.0^12,17.0^21,24]hexacosa-1(23),2(26),3,5,12,14,16,18,20,24-decaene]"
≤ 5 nM,3.8 nM,"CN1CCN(c2ccc3cc2OCCCOc2cccc(F)c2-c2cc4c-3n[nH]c4cn2)CC1 [Compound 6, 16-fluoro-5-(4-methylpiperazin-1-yl)-7,11-dioxa-19,22,23-triazapentacyclo[16.5.2.1^2,6.0^12,17.0^21,24]hexacosa-1(23),2(26),3,5,12,14,16,18,20,24-decaene]"
≤ 5 nM,7 nM,"CN1CCN(c2ccc3cc2OCCOCc2cccc(F)c2-c2cc4c-3n[nH]c4cn2)CC1 [Compound 9, 16-fluoro-5-(4-methylpiperazin-1-yl)-7,10-dioxa-19,22,23-triazapentacyclo[16.5.2.1^2,6.0^12,17.0^21,24]hexacosa-1(23),2(26),3,5,12,14,16,18,20,24-decaene]"
